# Earlier results in paper PMC10323144, “Garbage in, garbage out: how reliable training data improved a virtual screening approach against SARS-CoV-2 MPro” (Frontiers in Pharmacology, 2023).
# Test system: MPro
# Details: compiled from peer-reviewed sources (287 compounds) ref the 18 original articles; cited from earlier work
row,Compound,Class (MPro activity class)
1,O=C(CCl)N1CCN(Cc2cc(Cl)cc(Cl)c2)CC1 [PAU-UNI-8cdd41c7-1],1 (Compounds with IC50 < 10 µM or with a percentage of enzyme inhibition >50% at 10 µM were labelled as ACTIVE)
2,O=C(O)C(S)=Cc1c[nH]c2ccc(F)cc12 [PD151746],"0 (compounds with IC50 > 20 μM, percentage inhibition <80% at 20 µM or 50 μM, or percentage enzyme inhibition <50% at 10 µM were labelled as INACTIVE)"
3,COc1cccc2[nH]c(C(=O)NC(CC(C)C)C(=O)NC(CC3CCNC3=O)C(=O)CO)cc12 (centres unmarked) [PF-00835231],1 (Compounds with IC50 < 10 µM or with a percentage of enzyme inhibition >50% at 10 µM were labelled as ACTIVE)
4,CCCc1ccc(OCC(=O)N(Cc2nc(-c3cccnc3)no2)C(C)C)cc1 [PI-1840],"0 (compounds with IC50 > 20 μM, percentage inhibition <80% at 20 µM or 50 μM, or percentage enzyme inhibition <50% at 10 µM were labelled as INACTIVE)"
5,CCC(C)SSc1ncc[nH]1 (centres unmarked) [PX-12],"0 (compounds with IC50 > 20 μM, percentage inhibition <80% at 20 µM or 50 μM, or percentage enzyme inhibition <50% at 10 µM were labelled as INACTIVE)"
6,Cc1cnc(C(=O)N[C@H]2CCCCC/C=C\[C@@H]3C[C@@]3(C(=O)NS(=O)(=O)C3CC3)NC(=O)[C@@H]3C[C@@H](Oc4nc5ccccc5c5ccccc45)CN3C2=O)cn1 [Paritaprevir],"0 (compounds with IC50 > 20 μM, percentage inhibition <80% at 20 µM or 50 μM, or percentage enzyme inhibition <50% at 10 µM were labelled as INACTIVE)"
7,CCC(CC)C(NC(C)=O)C1C(N=C(N)N)CC(C(=O)O)C1O (centres unmarked) [Peramivir],"0 (compounds with IC50 > 20 μM, percentage inhibition <80% at 20 µM or 50 μM, or percentage enzyme inhibition <50% at 10 µM were labelled as INACTIVE)"
8,COc1cc([C@H]2OC[C@H]3[C@@H]2CO[C@H]3c2ccc(OC)c(OC)c2)ccc1O [Phillygenin],"0 (compounds with IC50 > 20 μM, percentage inhibition <80% at 20 µM or 50 μM, or percentage enzyme inhibition <50% at 10 µM were labelled as INACTIVE)"
9,COC(=O)N[C@H](C(=O)N1CCC[C@H]1c1nc2cc([C@H]3CC[C@H](c4cc5nc([C@@H]6CCCN6C(=O)[C@@H](NC(=O)OC)[C@@H](C)OC)[nH]c5cc4F)N3c3cc(F)c(N4CCC(c5ccc(F)cc5)CC4)c(F)c3)c(F)cc2[nH]1)[C@@H](C)OC [Pibrentasvir],"0 (compounds with IC50 > 20 μM, percentage inhibition <80% at 20 µM or 50 μM, or percentage enzyme inhibition <50% at 10 µM were labelled as INACTIVE)"
10,O=C(O)[C@H]1C2CCC(CC2)[C@@H]1Nc1nc(-c2c[nH]c3ncc(F)cc23)ncc1F [Pimodivir],"0 (compounds with IC50 > 20 μM, percentage inhibition <80% at 20 µM or 50 μM, or percentage enzyme inhibition <50% at 10 µM were labelled as INACTIVE)"
11,Cc1cc(CCCOc2c(C)cc(-c3noc(C(F)(F)F)n3)cc2C)on1 [Pleconaril],"0 (compounds with IC50 > 20 μM, percentage inhibition <80% at 20 µM or 50 μM, or percentage enzyme inhibition <50% at 10 µM were labelled as INACTIVE)"
12,CC[C@@H]([C@H](C)O)n1ncn(-c2ccc(N3CCN(c4ccc(OC[C@@H]5CO[C@@](Cn6cncn6)(c6ccc(F)cc6F)C5)cc4)CC3)cc2)c1=O [Posaconazole],"0 (compounds with IC50 > 20 μM, percentage inhibition <80% at 20 µM or 50 μM, or percentage enzyme inhibition <50% at 10 µM were labelled as INACTIVE)"
13,O=C1c2ccccc2NC(c2cc(Br)ccc2O)N1N=Cc1cc(Br)ccc1O (centres unmarked) [QZ1],"0 (compounds with IC50 > 20 μM, percentage inhibition <80% at 20 µM or 50 μM, or percentage enzyme inhibition <50% at 10 µM were labelled as INACTIVE)"
14,O=C1c2ccccc2NC(c2cc(Cl)ccc2O)N1N=Cc1cc(Cl)ccc1O (centres unmarked) [QZ2],1 (Compounds with IC50 < 10 µM or with a percentage of enzyme inhibition >50% at 10 µM were labelled as ACTIVE)
15,COc1cc(Br)cc(C=NN2C(=O)c3ccccc3NC2c2cc(Br)cc(OC)c2O)c1O (centres unmarked) [QZ3],"0 (compounds with IC50 > 20 μM, percentage inhibition <80% at 20 µM or 50 μM, or percentage enzyme inhibition <50% at 10 µM were labelled as INACTIVE)"
16,COc1ccc(O)c(C=NN2C(=O)c3ccccc3NC2c2cc(OC)ccc2O)c1 (centres unmarked) [QZ4],1 (Compounds with IC50 < 10 µM or with a percentage of enzyme inhibition >50% at 10 µM were labelled as ACTIVE)
17,O=C1c2ccccc2NC(c2cc([N+](=O)[O-])ccc2O)N1N=Cc1cc([N+](=O)[O-])ccc1O (centres unmarked) [QZ5],"0 (compounds with IC50 > 20 μM, percentage inhibition <80% at 20 µM or 50 μM, or percentage enzyme inhibition <50% at 10 µM were labelled as INACTIVE)"
18,O=c1c(O)c(-c2ccc(O)c(O)c2)oc2cc(O)c(O)c(O)c12 [Quercetagetin],1 (Compounds with IC50 < 10 µM or with a percentage of enzyme inhibition >50% at 10 µM were labelled as ACTIVE)
19,O=C(NC(Cc1cc(=O)[nH]c2ccccc12)C(=O)O)c1ccc(Cl)cc1 (centres unmarked) [REBAMIPIDE],"0 (compounds with IC50 > 20 μM, percentage inhibition <80% at 20 µM or 50 μM, or percentage enzyme inhibition <50% at 10 µM were labelled as INACTIVE)"

row,Compound,Class (MPro activity class)
1,CN(C)C(=O)c1cc2cnc(Nc3ccc(N4CCNCC4)cn3)nc2n1C1CCCC1 [RIBOCICLIB],"0 (compounds with IC50 > 20 μM, percentage inhibition <80% at 20 µM or 50 μM, or percentage enzyme inhibition <50% at 10 µM were labelled as INACTIVE)"
2,Cc1cc2nc3c(=O)[nH]c(=O)nc-3n(C[C@H](O)[C@H](O)[C@H](O)CO)c2cc1C [RIBOFLAVIN],"0 (compounds with IC50 > 20 μM, percentage inhibition <80% at 20 µM or 50 μM, or percentage enzyme inhibition <50% at 10 µM were labelled as INACTIVE)"
3,CC(C)(C(=O)NCC(F)(F)C(F)(F)F)C(=O)N[C@@H]1C(=O)Nc2ccccc2-c2ccccc21 [RO4929097],"0 (compounds with IC50 > 20 μM, percentage inhibition <80% at 20 µM or 50 μM, or percentage enzyme inhibition <50% at 10 µM were labelled as INACTIVE)"
4,Cc1nnc(C(=O)NC(C)(C)c2nc(C(=O)NCc3ccc(F)cc3)c(O)c(=O)n2C)o1 [Raltegravir],"0 (compounds with IC50 > 20 μM, percentage inhibition <80% at 20 µM or 50 μM, or percentage enzyme inhibition <50% at 10 µM were labelled as INACTIVE)"
5,NC(=O)c1ncn([C@@H]2O[C@H](CO)[C@@H](O)[C@H]2O)n1 [Ribavirin],"0 (compounds with IC50 > 20 μM, percentage inhibition <80% at 20 µM or 50 μM, or percentage enzyme inhibition <50% at 10 µM were labelled as INACTIVE)"
6,NC[C@H]1O[C@H](O[C@H]2[C@H](O[C@@H]3O[C@H](CO)[C@@H](O)[C@H]3O)[C@@H](O)[C@H](N)C[C@@H]2N)[C@H](N)[C@@H](O)[C@@H]1O [Ribostamycin],"0 (compounds with IC50 > 20 μM, percentage inhibition <80% at 20 µM or 50 μM, or percentage enzyme inhibition <50% at 10 µM were labelled as INACTIVE)"
7,CC(C)c1nc(CN(C)C(=O)N[C@H](C(=O)N[C@@H](Cc2ccccc2)C[C@H](O)[C@H](Cc2ccccc2)NC(=O)OCc2cncs2)C(C)C)cs1 [Ritonavir],"0 (compounds with IC50 > 20 μM, percentage inhibition <80% at 20 µM or 50 μM, or percentage enzyme inhibition <50% at 10 µM were labelled as INACTIVE)"
8,CCOC(=O)/C=C/[C@H](C[C@@H]1CCNC1=O)NC(=O)[C@@H](CC(=O)[C@@H](NC(=O)c1cc(C)on1)C(C)C)Cc1ccc(F)cc1 [Rupintrivir],"0 (compounds with IC50 > 20 μM, percentage inhibition <80% at 20 µM or 50 μM, or percentage enzyme inhibition <50% at 10 µM were labelled as INACTIVE)"
9,N#CC[C@H](C1CCCC1)n1cc(-c2ncnc3[nH]ccc23)cn1 [Ruxolitinib],"0 (compounds with IC50 > 20 μM, percentage inhibition <80% at 20 µM or 50 μM, or percentage enzyme inhibition <50% at 10 µM were labelled as INACTIVE)"
10,O=S(=O)(CC1CS1)c1ccc(Oc2ccccc2)cc1 (centres unmarked) [SB-3CT],"0 (compounds with IC50 > 20 μM, percentage inhibition <80% at 20 µM or 50 μM, or percentage enzyme inhibition <50% at 10 µM were labelled as INACTIVE)"
11,CC1(C)CN(C(=O)c2ccc(-c3cccc4nc(NC(=O)C5CC5)nn34)cc2)C1 [SOLCITINIB],"0 (compounds with IC50 > 20 μM, percentage inhibition <80% at 20 µM or 50 μM, or percentage enzyme inhibition <50% at 10 µM were labelled as INACTIVE)"
12,O=C(CCl)N1CCN(Cc2cc(Cl)ccc2CNC(=O)N2CCOCC2)CC1 [STU-CHA-6cae54d3-1],1 (Compounds with IC50 < 10 µM or with a percentage of enzyme inhibition >50% at 10 µM were labelled as ACTIVE)
13,N#C[C@@H]1C[C@@H]2C[C@@H]2N1C(=O)[C@@H](N)C12CC3CC(CC(O)(C3)C1)C2 [Saxagliptin],"0 (compounds with IC50 > 20 μM, percentage inhibition <80% at 20 µM or 50 μM, or percentage enzyme inhibition <50% at 10 µM were labelled as INACTIVE)"
14,O=c1cc(-c2ccc(O)cc2)oc2cc(O)c(O)c(O)c12 [Scutellarein],1 (Compounds with IC50 < 10 µM or with a percentage of enzyme inhibition >50% at 10 µM were labelled as ACTIVE)
15,O=C(O)[C@H]1O[C@@H](Oc2cc3oc(-c4ccc(O)cc4)cc(=O)c3c(O)c2O)[C@H](O)[C@@H](O)[C@@H]1O [Scutellarin],"0 (compounds with IC50 > 20 μM, percentage inhibition <80% at 20 µM or 50 μM, or percentage enzyme inhibition <50% at 10 µM were labelled as INACTIVE)"
16,C=C[C@H]1[C@H](O[C@@H]2O[C@H](CO)[C@@H](O)[C@H](O)[C@H]2O)OC=C(C(=O)OC)[C@H]1CC(=O)O [Secoxyloganin],"0 (compounds with IC50 > 20 μM, percentage inhibition <80% at 20 µM or 50 μM, or percentage enzyme inhibition <50% at 10 µM were labelled as INACTIVE)"
17,CC(C)[C@H](O)C(=O)N[C@@H](C)C(=O)N[C@@H]1C(=O)N(C)CCc2ccccc21 [Semagacestat],"0 (compounds with IC50 > 20 μM, percentage inhibition <80% at 20 µM or 50 μM, or percentage enzyme inhibition <50% at 10 µM were labelled as INACTIVE)"
18,N[C@@H](CC(=O)N1CCn2c(nnc2C(F)(F)F)C1)Cc1cc(F)c(F)cc1F [Sitagliptin],"0 (compounds with IC50 > 20 μM, percentage inhibition <80% at 20 µM or 50 μM, or percentage enzyme inhibition <50% at 10 µM were labelled as INACTIVE)"
19,CC(C)OC(=O)[C@H](C)N[P@](=O)(OC[C@H]1O[C@@H](n2ccc(=O)[nH]c2=O)[C@](C)(F)[C@@H]1O)Oc1ccccc1 [Sofosbuvir],"0 (compounds with IC50 > 20 μM, percentage inhibition <80% at 20 µM or 50 μM, or percentage enzyme inhibition <50% at 10 µM were labelled as INACTIVE)"
